Reference: patent US10500146B2, “Composition for skin whitening comprising amorphigeni as effective ingredient” (INDUSTRY-ACADEMIC COOPERATION FOUNDATION GYEONGSANG …, priority 2015, dated 2019)

Legend:
Format in all cases: cell-based
[1] = system: B16F10 mouse melanoma cells; experiment: Cell cycle measurement, PI staining, flow cytometer; conditions: FIG. 3
[2] = system: B16F10 mouse melanoma cells; experiment: Measurement of melanin content
Protocol: Measurement of melanin content was carried out by slightly modifying the method by Yang et al. (Yang et al., 2006, Acta pharmacologica Sinica 27, 1467-73). Specifically, B16F10 cells were inoculated into a 6-well plate and cultured for 24 hours. Thereafter, the cells were treated with amorphigeni and α-MSH, each at 1 μM, followed by culture for 48 hours. The cultured cells were collected after being subjected to trypsinization and dissolution in 1 N NaOH containing DMSO for 24 hours at 65° C. By using a microplate reader (Bio-Rad), melanin content was measured at 415 nm.
In order to see whether or not amorphigeni can suppress the pigmentation induced by α-MSH (melanocyte-stimulating hormone), B16F10 cells were treated with α-MSH and amorphigeni, either separately or simultaneously, followed by incubation for 72 hours. […] Namely, it was able confirm that, by reducing melanin content, amorphigeni of the present invention can suppress […].
Furthermore, after treating B16F10 melanin cells with α-MSH, amorphigeni, and 3MA all together for 48 hours, the melanin content and oxidation level of L-DOPA were measured (***P≤0.001).
In order to confirm whether or not amorphigeni causes degradation of melanosomes which have been previously produced by α-MSH, B16F10 melanin cells were treated for 48 hours with α-MSH to have synthesis of melanosomes. Thereafter, the cells were treated with amorphigeni for 48 hours, and melanin content was measured.
Furthermore, in order to see whether or not amorphigeni causes degradation of previously produced melanosomes via autophagy, B16F10 melanin cells were treated with α-MSH for 48 hours to have synthesis of melanosome. After that, the cells were treated with 3MA as an autophagy inhibitor for 48 hours. Then, the melanin content and protein expression level of tyrosinase and PMEL were measured (ns=no significance, *P≤0.05, **P≤0.01, ***P≤0.001).

[3] = system: B16F10 mouse melanoma cells; experiment: Cell viability (MTT analysis); conditions: amorphigeni at 100 nM and 1600 nM, 24 hours, FIG. 2
Protocol: B16F10 cells were cultured for 24 hours in a 96-well plate. Thereafter, they were treated with amorphigeni at various concentrations, and cultured for 24 hours. Subsequently, a MTT solution (5 μg/mL) was added to the cells, which were then cultured for 3 hours. After removing the medium and treating the cells with DMSO, the cells were cultured for 20 minutes. By using a microplate reader (Bio-Rad), absorbance at 595 nm was measured.
In Example 1, to find out functional plant metabolites which induce depigmentation in melanin cells, amorphigeni was isolated from roots of Amorpha fruticosa (FIG. 1). To determine the cytotoxicity of amorphigeni, B16F10 cells were treated with amorphigeni at various concentrations followed by culture for 24 hours. Then, based on MTT (3-(4,5-dimethylthiazol-2-yl)-2,5-diphenyltetrazolium bromide) analysis, cell viability was determined.

Structure (SMILES): C=C(CO)C1Cc2c(ccc3c2OC2COc4cc(OC)c(OC)cc4C2C3=O)O1 (stereo not drawn) [amorphigeni]
- cell death (cell cycle, PI staining) [1]: without inducing any cell death
- content of the previously formed melanin ([2]; α-MSH 48 hours, then amorphigeni 48 hours, FIG. 10): effectively lowered
- melanin content (previously formed) ([2]; α-MSH 48 hours, then amorphigeni and 3MA 48 hours, versus α-MSH and amorphigeni, FIG. 11): increased again
- melanin content ([2]; α-MSH and amorphigeni together versus α-MSH only, 72 hours, FIG. 4A): tend to decease
- melanin content ([2]; α-MSH, amorphigeni and 3MA together, 48 hours, versus α-MSH and amorphigeni, FIG. 9A): increased again
- cytotoxicity (cell viability, MTT) [3]: low cytotoxicity
